Laboratory results published in patent publication US4476122A, “Alkyloximes of 7-amino-thiazolyl-acetamido-cephalosporanic acids” (Roussel Uclaf, priority 1976, dated 1984).
Read-outs that look alike come from different tables or passages of the source.

Tests used:
[1] = tested on: Escherichia coli (T) O26 B6; test: Experimental infection with Escherichia coli (T) O26 B6 in mice; assay type: in vivo
Experimental: The products of Example 6 and 10 were studied for their activity against an experimental infection of Escherichia coli in groups of 10 male mice weighing about 22 g. The mice received an intraperitoneal injection of 0.5 ml of a 24 hour old culture in a nutritive media of Escherichia coli (T) O26 B6 of the Pasteur Institute diluted 1/5.5 with distilled water. The test product was administered subcutaneously or orally 1 hour and 5 and 24 hours after the infection and the number of dead was determined during 8 days.

[2] = tested on: Streptococcus faecalis 5 432; test: MIC, liquid medium dilution; assay type: cell-based
Experimental: (§1) The method used was a dilution of a liquid medium where a series of tubes received the same quantity of a sterile nutritive media and increasing doses of the test compounds were placed therein. Then each tube was seeded with a bacterial strain and was incubated for 24 or 48 hours at 37° C. in an oven. The increasing inhibition was determined by transillumination to determine the minimum inhibiting concentration (MIC in μg/ml) and the results are reported in the following Tables.

[3] = tested on: Escherichia Coli Resistant Tetracycline ATCC 11 303; test: MIC, liquid medium dilution; assay type: cell-based
Experimental: as §1

[4] = tested on: Staphylococcus aureus ATCC 6 538 Pen-Sensitive; test: MIC, liquid medium dilution; assay type: cell-based
Experimental: as §1

[5] = tested on: Klebsiella pneumoniae Exp. 52 145; test: MIC, liquid medium dilution; assay type: cell-based; conditions: read-out: MIC
Experimental: as §1

[6] = tested on: Staphylococcus aureus UC 1 128 Pen-Resistant; test: MIC, liquid medium dilution; assay type: cell-based
Experimental: as §1

[7] = tested on: Escherichia Coli Resistant Gentamicine, Tobramycine R 55 123 D; test: MIC, liquid medium dilution; assay type: cell-based
Experimental: as §1

[8] = tested on: Streptococcus pyogenes A 561; test: MIC, liquid medium dilution; assay type: cell-based
Experimental: as §1

[9] = tested on: Proteus vulgaris (indol+) A 232; test: MIC, liquid medium dilution; assay type: cell-based
Experimental: as §1

[10] = tested on: Serratia Resistant Gentamicine 2 532; test: MIC, liquid medium dilution; assay type: cell-based
Experimental: as §1

[11] = tested on: Bacillus subtilis ATCC 6 633; test: MIC, liquid medium dilution; assay type: cell-based
Experimental: as §1

Providencia Du 48 = test: MIC, liquid medium dilution; assay type: cell-based
Experimental: as §1

[12] = tested on: Klebsiella pneumoniae 2 536 Resistant Gentamicine; test: MIC, liquid medium dilution; assay type: cell-based
Experimental: as §1

[13] = tested on: Salmonella typhimurium 420; test: MIC, liquid medium dilution; assay type: cell-based; conditions: Salmonella enterica
Experimental: as §1

[14] = tested on: Staphylococcus aureus exp. n° 54 146; test: MIC, liquid medium dilution; assay type: cell-based
Experimental: as §1

[15] = tested on: Streptococcus faecalis 99 F 74; test: MIC, liquid medium dilution; assay type: cell-based; conditions: Enterococcus faecalis
Experimental: as §1

[16] = tested on: Escherichia Coli Sensitive Tetracycline ATCC 9 637; test: MIC, liquid medium dilution; assay type: cell-based
Experimental: as §1

[17] = tested on: Proteus mirabilis (indol-) A 235; test: MIC, liquid medium dilution; assay type: cell-based
Experimental: as §1

[18] = tested on: Escherichia Coli Exp. TO26 B6; test: MIC, liquid medium dilution; assay type: cell-based
Experimental: as §1

[19] = tested on: Klebsiella pneumonia 52,145; test: Experimental infection with Klebsiella pneumonia in mice (D); assay type: in vivo
Experimental: The activity of the products of Examples 19 and 21 was studied on an experimental infection of Klebsiella pneumonia in mice. Groups of 10 male mice weighing 21.5 g received intraperitoneally 0.5 ml of a 24 hour culture in nutritive media of Klebsiella pneumonia 52,145 diluted by 1/1000 with distilled water. The products were administered subcutaneously 1,5 and 24 hours after the injection and the number of dead mice were determined using 10th days.

[20] = Enterococcus faecalis, 5432, 24 h
[21] = Enterococcus faecalis, 5432, 48 h

CO/N=C(\C(=O)NC1C(=O)N2C(C(=O)O)=C(C)CSC12)c1csc(N)n1 (stereo not shown) [Example 10, 7-[{2-(2-amino-4-thiazolyl)-2-methoxyimino}acetylamino]-3-methyl-ceph-3-eme-4-carboxylic acid]
3: Mortality after 21 H 30 (number of dead of 10) ([1]; s. c., 3 × 0,1 mg)
40 µg/mL: MIC ([4]; ATCC6, 48 h) | MIC ([6]; UC1, 24 h) | MIC ([6]; UC1, 48 h) | MIC ([14]; 24 h) | MIC ([14]; 48 h)
7/10: Mice surviving on the 8th day ([1]; per os, 3 × mg) | Mice surviving on the 8th day ([1]; s. c., 3 × 0,25 mg)
0.05 µg/mL: MIC ([8]; A561, 24 h) | MIC ([8]; A561, 48 h, read-out: MIC)
3 µg/mL: MIC ([9]; 24 h)
20 µg/mL: MIC [2, 20] | MIC ([4]; ATCC6, 24 h) | MIC ([9]; 48 h) | MIC ([11]; ATCC6, 24 h) | MIC ([15]; 99F74, 24 h)
6/10: Mice surviving on the 8th day ([1]; s. c., 3 × 0,1 mg)
0.2 µg/mL: MIC ([3]; ATCC11, 24 h) | MIC ([3]; ATCC11, 48 h) | MIC ([17]; 48 h)
0.1 µg/mL: MIC ([5]; EXP.52145, 24 h) | MIC ([5]; EXP.52145, 48 h) | MIC ([17]; 24 h, read-out: MIC)
8/10: Mice surviving on the 8th day ([1]; s. c., 3 × 0,5 mg)
2: Mortality after 6 J (number of dead of 10) ([1]; per os, 3 × 0,5 mg) | Mortality after 21 H 30 (number of dead of 10) ([1]; per os, 3 × 0,5 mg) | Mortality after 70 H (number of dead of 10) ([1]; per os, 3 × 0,5 mg) | Mortality after 47 H (number of dead of 10) ([1]; per os, 3 × mg) | Mortality after 47 H (number of dead of 10) ([1]; s. c., 3 × 0,5 mg)
1: Mortality after 5 J (number of dead of 10) ([1]; per os, 3 × 0,5 mg) | Mortality after 47 H (number of dead of 10) ([1]; per os, 3 × 0,5 mg) | Mortality after 24 H 30 (number of dead of 10) ([1]; per os, 3 × 0,25 mg) | Mortality after 24 H (number of dead of 10) ([1]; per os, 3 × 0,25 mg) | Mortality after 21 H 30 (number of dead of 10) ([1]; per os, 3 × mg) | Mortality after 47 H (number of dead of 10) ([1]; s. c., 3 × 0,1 mg) | Mortality after 5 H 30 (number of dead of 10) ([1]; s. c., 3 × 0,25 mg) | Mortality after 28 H (number of dead of 10) ([1]; s. c., 3 × 0,25 mg) | Mortality after 54 H (number of dead of 10) ([1]; s. c., 3 × 0,25 mg)
6: Mortality after 21 H 30 (number of dead of 10) ([1]; per os, 3 × 0,25 mg)
2 µg/mL: MIC (Providencia Du 48; DU48, 24 h) | MIC ([12]; 48 h)
0.4 µg/mL: MIC ([18]; 24 h)
> 40 µg/mL: MIC [2, 21] | MIC ([11]; ATCC6, 48 h) | MIC ([15]; 99F74, 48 h)
5 µg/mL: MIC ([10]; 24 h) | MIC (Providencia Du 48; DU48, 48 h)
2/10: Mice surviving on the 8th day ([1]; per os, 3 × 0,5 mg) | Mice surviving on the 8th day ([1]; per os, 3 × 0,25 mg)
0.6 µg/mL: MIC ([7]; 24 h, read-out: MIC) | MIC ([7]; 48 h) | MIC ([12]; 24 h, read-out: MIC) | MIC ([13]; 24 h, read-out: MIC) | MIC ([13]; 48 h) | MIC ([16]; ATCC9, 24 h, read-out: MIC) | MIC ([16]; ATCC9, 48 h) | MIC ([18]; 48 h)
10 µg/mL: MIC ([10]; 48 h, read-out: MIC)

CO/N=C(/C(=O)NC1C(=O)N2C(C(=O)O)=C(C)CS[C@H]12)c1csc(N)n1 (stereo partly shown) [Example 15, 7-[{2-(2-amino-4-thiazolyl)-2-methoxyiminoacetyl}amino]-3-methyl-ceph-3-eme-4-carboxylic acid]
100 µg/mL: MIC ([5]; EXP.52145, 24 h) | MIC ([5]; EXP.52145, 48 h)
2 µg/mL: MIC ([8]; A561, 24 h)
40 µg/mL: MIC ([17]; 48 h, read-out: MIC)
> 100 µg/mL: MIC [2, 20] | MIC [2, 21] | MIC ([3]; ATCC11, 24 h) | MIC ([3]; ATCC11, 48 h) | MIC ([4]; ATCC6, 24 h) | MIC ([4]; ATCC6, 48 h) | MIC ([6]; UC1, 24 h) | MIC ([6]; UC1, 48 h) | MIC ([7]; 24 h) | MIC ([7]; 48 h) | MIC ([9]; 24 h) | MIC ([9]; 48 h) | MIC ([10]; 24 h) | MIC ([10]; 48 h) | MIC ([11]; ATCC6, 24 h) | MIC ([11]; ATCC6, 48 h) | MIC (Providencia Du 48; DU48, 24 h) | MIC (Providencia Du 48; DU48, 48 h) | MIC ([12]; 24 h) | MIC ([12]; 48 h) | MIC ([13]; 24 h) | MIC ([13]; 48 h) | MIC ([14]; 24 h) | MIC ([14]; 48 h) | MIC ([15]; 99F74, 24 h) | MIC ([15]; 99F74, 48 h) | MIC ([16]; ATCC9, 24 h) | MIC ([16]; ATCC9, 48 h) | MIC ([18]; 24 h) | MIC ([18]; 48 h)
3 µg/mL: MIC ([8]; A561, 48 h)
20 µg/mL: MIC ([17]; 24 h, read-out: MIC)

CO/N=C(\C(=O)NC1C(=O)N2C(C(=O)O)=C(CSc3nnc(C)s3)CS[C@H]12)c1csc(N)n1 (stereo partly shown) [Example 19, sodium 7-[{2-(2-amino-4-thiazolyl)-2-methoxyiminoacetyl}amino]-3-[(2-methyl-1,3,4-thiadiazol-5-yl)-thiomethyl]-ceph-3-eme-4-carboxylate]
2: Mortality after 5eJ (number of dead of 10) ([19]; subcutaneous, 0,05 mg)
9/10: Mice alive on the 10th day ([19]; subcutaneous, 0,1 mg)
1: Mortality after 6eJ (number of dead of 10) ([19]; subcutaneous, 0,1 mg) | Mortality after 4eJ (number of dead of 10) ([19]; subcutaneous, 0,05 mg) | Mortality after 7eJ (number of dead of 10) ([19]; subcutaneous, 0,05 mg)
6/10: Mice alive on the 10th day ([19]; subcutaneous, 0,05 mg)
10/10: Mice alive on the 10th day ([19]; subcutaneous, 0,5 mg) | Mice alive on the 10th day ([19]; subcutaneous, 0,25 mg) | Mice alive on the 10th day ([19]; subcutaneous, 1 mg)
